Target: EGFR (UniProt P00533)
Test: Inhibition of EGFR Kinase Activity

Chain of EGFR (P00533 whole entry, looked up): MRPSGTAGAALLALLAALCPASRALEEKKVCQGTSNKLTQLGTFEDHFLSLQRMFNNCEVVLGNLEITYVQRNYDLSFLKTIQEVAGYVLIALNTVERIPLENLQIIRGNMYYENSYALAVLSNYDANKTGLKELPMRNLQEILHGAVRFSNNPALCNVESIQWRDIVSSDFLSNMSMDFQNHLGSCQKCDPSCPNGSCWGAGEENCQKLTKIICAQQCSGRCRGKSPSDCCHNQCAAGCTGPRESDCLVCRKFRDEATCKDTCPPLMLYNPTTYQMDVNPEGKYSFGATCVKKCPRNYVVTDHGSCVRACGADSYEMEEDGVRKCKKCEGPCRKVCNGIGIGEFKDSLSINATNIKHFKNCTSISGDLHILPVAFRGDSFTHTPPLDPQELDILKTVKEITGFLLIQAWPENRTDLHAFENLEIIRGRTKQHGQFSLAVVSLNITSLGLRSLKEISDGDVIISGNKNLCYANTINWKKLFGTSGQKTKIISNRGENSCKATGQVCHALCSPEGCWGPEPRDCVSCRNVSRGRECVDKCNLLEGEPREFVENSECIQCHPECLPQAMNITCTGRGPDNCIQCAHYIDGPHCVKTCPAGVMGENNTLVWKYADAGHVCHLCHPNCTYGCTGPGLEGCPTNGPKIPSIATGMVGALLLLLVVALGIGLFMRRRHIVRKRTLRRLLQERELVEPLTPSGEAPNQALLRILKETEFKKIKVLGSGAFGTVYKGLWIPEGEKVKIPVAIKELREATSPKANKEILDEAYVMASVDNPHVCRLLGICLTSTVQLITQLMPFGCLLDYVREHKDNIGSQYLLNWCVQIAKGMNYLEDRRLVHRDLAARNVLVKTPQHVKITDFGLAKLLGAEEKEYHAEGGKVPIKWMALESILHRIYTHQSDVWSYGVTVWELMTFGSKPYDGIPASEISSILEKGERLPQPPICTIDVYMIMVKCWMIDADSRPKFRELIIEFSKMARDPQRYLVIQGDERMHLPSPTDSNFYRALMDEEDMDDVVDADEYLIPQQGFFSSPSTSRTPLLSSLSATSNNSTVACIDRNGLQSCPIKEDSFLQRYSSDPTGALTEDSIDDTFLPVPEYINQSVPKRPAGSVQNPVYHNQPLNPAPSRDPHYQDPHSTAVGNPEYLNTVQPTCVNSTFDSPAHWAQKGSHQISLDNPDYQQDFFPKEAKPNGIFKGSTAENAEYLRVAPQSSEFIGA

IC50	SMILES
< 50 µM	C=CCN(c1ccc(OCCO)cc1)c1ncnc(Nc2ccc(NC(=O)C=C)cc2)n1
< 50 µM	C=CC(=O)Nc1ccc(Nc2ncnc(N(CC)c3ccc(OC)c(OCCOC)c3)n2)cc1
< 50 µM	C=CC(=O)Nc1ccc(Nc2ncnc(N(C)c3ccc(F)c(Cl)c3)n2)cc1
< 50 µM	C=CC(=O)Nc1cccc(Nc2ncnc(N(CC)c3ccc(OCCC)c(OCCC)c3)n2)c1
< 50 µM	C=CC(=O)Nc1cccc(Nc2ncnc(N(CC)c3ccc(OCCO)cc3)n2)c1
< 50 µM	C=CC(=O)Nc1cccc(Nc2ncnc(Nc3ccc(OCCO)cc3)n2)c1
< 50 µM	C=CCN(c1ncnc(Nc2cccc(NC(=O)C#CC)c2)n1)c1cc(Cl)ccc1C
< 50 µM	CC#CC(=O)Nc1cccc(Nc2ncnc(Nc3ccc(OCCC)c(OCCC)c3)n2)c1
< 50 µM	C=CC(=O)N(CCCN1CCOCC1)c1cccc(Nc2ncnc(Nc3cccc(C)c3)n2)c1
< 50 µM	C=CC(=O)Nc1cccc(Nc2ncnc(Nc3cccc(CC(=O)OC)c3)n2)c1
< 50 µM	C#CCC(=O)Nc1cccc(Nc2ncnc(NN3CCCc4c(Cl)cccc43)n2)c1
< 50 µM	C=CC(=O)Nc1ccc(Nc2ncnc(Nc3cc(OC)c(OC)c(OC)c3)n2)cc1
< 50 µM	C=CCN(c1cccc(C(N)=O)c1)c1ncnc(Nc2ccc(NC(=O)C=C)cc2)n1
< 50 µM	CC#CC(=O)Nc1cccc(Nc2ncnc(n2)N(CC=C)c3ccc4NN(=Cc4c3)Cc5ccccn5)c1
< 50 µM	C=CC(=O)Nc1cccc(Nc2ncnc(N(C)c3cccc(C)c3)n2)c1
< 50 µM	C=CCN(c1ccc(OCCC)c(OCCC)c1)c1ncnc(Nc2cccc(NC(=O)C=C)c2)n1
< 50 µM	C=CC(=O)Nc1cccc(Nc2ncnc(N(C)c3cc(OC)c(OC)c(OCCN4CCOCC4)c3)n2)c1
< 50 µM	C=CCN(c1cc(OC)c(OC)c(OCCN2CCOCC2)c1)c1ncnc(Nc2ccc(NC(=O)C=C)cc2)n1
< 50 µM	CC#CC(=O)Nc1cccc(Nc2ncnc(N(CC)n3c(=O)n(C(=O)C(C)(C)C)c4ccccc43)n2)c1
< 50 µM	C=CCN(c1ncnc(Nc2ccc(NC(=O)C=C)cc2)n1)C1CC1c1ccccc1 (stereo unspecified)
< 50 µM	C=CCN(c1ncnc(Nc2ccc(NC(=O)C=C)cc2)n1)C1CC1c1ccc(Cl)cc1 (stereo unspecified)
< 50 µM	CC#CC(=O)Nc1cccc(Nc2ncnc(N(CC)c3cc(Cl)cc4ccccc34)n2)c1
< 50 µM	C=CCN(c1ccc2c(cnn2Cc2ccccc2)c1)c1ncnc(Nc2cccc(NC(=O)C#CC)c2)n1
< 50 µM	O=C(/C=C/c1cccc(Nc2ncnc(Nc3ccc4c(cnn4Cc4ccccc4)c3)n2)c1)NCCCN1CCOCC1

IC50	SMILES
< 50 µM	C=CC(=O)Nc1ccc(Nc2ncnc(NN3CCCc4cc(Cl)ccc43)n2)cc1
< 50 µM	C=CC(=O)Nc1ccc(Nc2ncnc(N(CC)c3ccc(F)c(Cl)c3)n2)cc1
< 50 µM	C=CC(=O)Nc1ccc(Nc2ncnc(N(CC)c3ccc(OC)c(OC)c3)n2)cc1
< 50 µM	C=CC(=O)Nc1cccc(Nc2ncnc(Nc3ccc4c(cnn4Cc4ccccc4)c3)n2)c1
< 50 µM	C=CC(=O)Nc1cccc(Nc2ncnc(Nn3c(=O)[nH]c4ccccc43)n2)c1
< 50 µM	C=CC(=O)Nc1ccc(Nc2ncnc(Nc3ccc4c(cnn4Cc4ccccc4)c3)n2)cc1
< 50 µM	C=CC(=O)Nc1cccc(Nc2ncnc(N(CC)c3cccc(Cl)c3)n2)c1
< 50 µM	C=CCN(c1ccc(OCCO)cc1)c1ncnc(Nc2cccc(NC(=O)C#CC)c2)n1
< 50 µM	C=CCN(c1ccc2NN(=Cc2c1)Cc3ccccn3)c4ncnc(Nc5cccc(NC(=O)C=C)c5)n4
< 50 µM	CC#CC(=O)Nc1cc(Nc2ncnc(N(C)c3ccc4c(cnn4Cc4ccccc4)c3)n2)ccc1OC
< 50 µM	CC#CC(=O)Nc1cccc(Nc2ncnc(n2)N(C)c3ccc4NN(=Cc4c3)Cc5ccccn5)c1
< 50 µM	C=CCN(c1ccc(OC)c(OC)c1)c1ncnc(Nc2cccc(NC(=O)C#CC)c2)n1
< 50 µM	C=CC(=O)Nc1cccc(Nc2ncnc(N(CC)c3ccc4c(cnn4Cc4ccccc4)c3)n2)c1
< 50 µM	C=CCN(c1ccc(OC)c(OCCOC)c1)c1ncnc(Nc2cccc(NC(=O)C#CC)c2)n1
< 50 µM	CC#CC(=O)Nc1cccc(Nc2ncnc(N(CC)c3ccc(OCC)c(OCC)c3)n2)c1
< 50 µM	C=CC(=O)Nc1ccc(Nc2ncnc(N(C)c3cc(Cl)cc4ccccc34)n2)cc1
< 50 µM	C=CC(=O)Nc1ccc(Nc2ncnc(Nc3ccc4NN(=Cc4c3)Cc5ccccn5)n2)cc1
< 50 µM	C=CCN(c1ncnc(Nc2cccc(NC(=O)C=C)c2)n1)c1cc(Cl)cc2ccccc12
< 50 µM	CC#CC(=O)Nc1cc(Nc2ncnc(Nc3ccc4c(cnn4Cc4ccccc4)c3)n2)ccc1OCCCC1CCN(C)CC1
< 50 µM	C=CC(=O)Nc1cccc(Nc2ncnc(N(C)C3CC3c3ccccc3)n2)c1 (stereo unspecified)
< 50 µM	C=CCN(c1ncnc(Nc2cccc(NC(=O)C#CC)c2)n1)n1c(=O)n(C(=O)C(C)(C)C)c2ccccc21
< 50 µM	C=CCN(c1ccc(F)c(Cl)c1)c1ncnc(Nc2cccc(NC(=O)C#CC)c2)n1
< 50 µM	C=CCN(c1ncnc(Nc2cccc(NC(=O)C#CC)c2)n1)n1c(=O)[nH]c2ccccc21
< 50 µM	C=CC(=O)Nc1cc(Nc2ncnc(Nc3cccc(Cl)c3)n2)ccc1OCCCC1CCN(C)CC1

IC50	SMILES
< 50 µM	C=CCN(c1ncnc(Nc2ccc(NC(=O)C=C)cc2)n1)c1cc(Cl)cc2ccccc12
< 50 µM	C=CC(=O)Nc1ccc(Nc2ncnc(Nc3ccc(OCc4ccccc4)c(Cl)c3)n2)cc1
< 50 µM	C=CCN(c1cccc(C(N)=O)c1)c1ncnc(Nc2cccc(NC(=O)C#CC)c2)n1
< 50 µM	C=CC(=O)Nc1ccc(Nc2ncnc(N(CC)c3ccc4c(cnn4Cc4ccccc4)c3)n2)cc1
< 50 µM	CC#CC(=O)Nc1cccc(Nc2ncnc(N(CC)c3ccc(OCCO)cc3)n2)c1
< 50 µM	C=CC(=O)Nc1cc(Nc2ncnc(N(C)c3ccc(OCc4ccccc4)c(Cl)c3)n2)ccc1OCCCC1CCN(C)CC1
< 50 µM	CC#CC(=O)Nc1cccc(Nc2ncnc(N(CC)c3ccc(OC)c(OCCOC)c3)n2)c1
< 50 µM	C=CC(=O)Nc1cccc(Nc2ncnc(N(CC)n3c(=O)n(C(=O)C(C)(C)C)c4ccccc43)n2)c1
< 50 µM	C=CC(=O)Nc1ccc(Nc2ncnc(N(CC)c3ccc(OCCOC)c(OC)c3)n2)cc1
< 50 µM	C=CC(=O)Nc1cccc(Nc2ncnc(Nc3ccc4c(ccn4Cc4ccccc4)c3)n2)c1
< 50 µM	C=CC(=O)Nc1cc(Nc2ncnc(N(C)c3ccc(OCc4ccccc4)c(Cl)c3)n2)ccc1OCCCN1CCOCC1
< 50 µM	C=CC(=O)Nc1cccc(Nc2ncnc(Nc3cccc(S(=O)(=O)c4ccc([N+](=O)[O-])cc4)c3)n2)c1
< 50 µM	C=CCN(c1ccc(OCc2ccccc2)cc1)c1ncnc(Nc2cccc(NC(=O)C=C)c2)n1
< 50 µM	C=C/C=C/C(=O)Nc1cccc(Nc2ncnc(NC3CC3c3ccc(Cl)cc3)n2)c1 (stereo unspecified)
< 50 µM	C/C=C/C(=O)Nc1cccc(Nc2ncnc(NC3CC3c3ccccc3)n2)c1 (stereo unspecified)
< 50 µM	C=CC(=O)Nc1cc(Nc2ncnc(Nc3ccc4c(cnn4Cc4ccccc4)c3)n2)ccc1OCCCN1CCOCC1
< 50 µM	C=CCN(c1ncnc(Nc2cccc(NC(=O)C=C)c2)n1)n1c(=O)n(C(=O)C(C)(C)C)c2ccccc21
< 50 µM	C=CCN(c1ccc(OCc2ccccc2)cc1)c1ncnc(Nc2ccc(NC(=O)C=C)cc2)n1
< 50 µM	C=CCN(c1ccc(OCc2ccccc2)cc1)c1ncnc(Nc2cccc(NC(=O)C#CC)c2)n1
< 50 µM	CC#CC(=O)Nc1cccc(Nc2ncnc(Nc3ccc(C(=O)OC)cc3)n2)c1
< 50 µM	CC#CC(=O)Nc1cccc(Nc2ncnc(N(C)c3ccc(OCCOC)c(OC)c3)n2)c1
< 50 µM	CC#CC(=O)Nc1cccc(Nc2ncnc(Nc3ccc(OC)c(OC)c3)n2)c1
< 50 µM	C=CC(=O)Nc1cccc(Nc2ncnc(N(CC)c3ccc(OC)c(OC)c3)n2)c1
< 50 µM	C=CC(=O)Nc1cc(Nc2ncnc(N(C)c3cccc(Cl)c3)n2)ccc1OCCCN1CCOCC1

IC50	SMILES
< 50 µM	CC#CC(=O)Nc1cccc(Nc2ncnc(N(C)C3CC3c3ccc(Cl)cc3)n2)c1 (stereo unspecified)
< 50 µM	C=CC(=O)Nc1cccc(Nc2ncnc(N(C)c3cccc(C(N)=O)c3)n2)c1
< 50 µM	C=CC(=O)Nc1cccc(Nc2ncnc(Nc3ccc(OCc4ccc(Cl)c(Cl)c4)c(C(F)(F)F)c3)n2)c1
< 50 µM	C=CC(=O)Nc1ccc(Nc2ncnc(Nc3ccc(F)c(Cl)c3)n2)cc1
< 50 µM	C=CC(=O)Nc1cccc(Nc2ncnc(Nc3ccc(OCc4ccccc4)cc3)n2)c1
< 50 µM	C=CC(=O)Nc1ccc(Nc2ncnc(Nc3cc(OC)c(OC)c(OCCN4CCOCC4)c3)n2)cc1
< 50 µM	CC#CC(=O)Nc1cccc(Nc2ncnc(N(CC)c3ccc(C(=O)OC)cc3)n2)c1
< 50 µM	C=CC(=O)Nc1ccc(Nc2ncnc(Nc3ccc4c(cnn4Cc4ccccc4)c3)n2)cc1OC
< 50 µM	C=CC(=O)Nc1cccc(Nc2ncnc(N(C)C3CC3c3ccc(Cl)cc3)n2)c1 (stereo unspecified)
< 50 µM	C=CC(=O)Nc1ccc(Nc2ncnc(N(C)c3cc(Cl)ccc3C)n2)cc1
< 50 µM	C=CC(=O)Nc1ccc(Nc2ncnc(Nc3cccc(OCCOC)c3)n2)cc1
< 50 µM	C=CCN(c1ncnc(Nc2cccc(NC(=O)C#CC)c2)n1)c1cccc2ccccc12
< 50 µM	C=CC(=O)Nc1ccc(Nc2ncnc(N(C)C3CC3c3ccc(Cl)cc3)n2)cc1 (stereo unspecified)
< 50 µM	C=CC(=O)Nc1cccc(Nc2ncnc(N(C)c3cccc(CC(=O)OC)c3)n2)c1
< 50 µM	CC#CC(=O)Nc1cccc(Nc2ncnc(Nc3ccc4NN(=Cc4c3)Cc5ccccn5)n2)c1
< 50 µM	C=CC(=O)Nc1cccc(Nc2ncnc(N(CC)c3cc(Cl)ccc3C)n2)c1
< 50 µM	CC#CC(=O)Nc1cccc(Nc2ncnc(Nc3cccc4ccccc34)n2)c1
< 50 µM	C=CC(=O)Nc1cccc(Nc2ncnc(Nc3cccc(Br)c3)n2)c1
< 50 µM	CC#CC(=O)Nc1cccc(Nc2ncnc(N(CC)C3CC3c3ccccc3)n2)c1 (stereo unspecified)
< 50 µM	C=CC(=O)N(CCCN1CCOCC1)c1cccc(Nc2ncnc(N(C)C3CC3c3ccccc3)n2)c1 (stereo unspecified)
< 50 µM	C=CC(=O)Nc1cccc(Nc2ncnc(N(CC)c3cccc(C(N)=O)c3)n2)c1
< 50 µM	CC#CC(=O)Nc1cccc(Nc2ncnc(N(CC)c3cccc4ccccc34)n2)c1
< 50 µM	C=CCN(c1cc(OC)c(OC)c(OCCN2CCOCC2)c1)c1ncnc(Nc2cccc(NC(=O)C#CC)c2)n1
< 50 µM	C=CCN(c1ncnc(Nc2cccc(NC(=O)C#CC)c2)n1)C1CC1c1ccccc1 (stereo unspecified)

Reference: the Kinase Knowledgebase extract (Sharma et al. 2016)
